Entries after “also recorded” stand apart in the source; their conditions may differ.

Data set [1] has as its system glioblastoma-astrocytoma (U-87 MG). The data set is described as follows: Human glioblastoma-astrocytoma tumour growth in mice. It counts as in vivo, human cells in mice. On the procedure:
Unless noted otherwise in this Example human tumour cell lines were purchased from the American Type Culture Collections (ATCC) (Rockville, Md.). Human colon adenocarcinoma (HT-29), non-small cell lung carcinoma (NCI-H460), melanoma (A2058), breast adenocarcinoma (MDA-MB-231), pancreatic carcinoma (AsPC-1 and SU.86.86), glioblastoma-astrocytoma (U-87 MG), renal carcinoma (A498 and Caki-1), ovarian carcinoma (SK-OV-3), cervical carcinoma (HeLa S3), prostate carcinoma (PC-3), bladder carcinoma (T24), Burkitt's lymphoma (Raji) and hepatocellular carcinoma (Hep G2) were maintained, according to ATCC recommendation, in α-MEM, RPMI1640, or McCoy's 5a medium (Invitrogen Canada Inc. Burlington, Ontario) supplemented with 10-20% fetal calf serum (FCS) at 37° C. in a humidified atmosphere containing 5% CO2. Normal human cell lines, WI-38 (human lung fibroblast) and HUVEC (human umbilical vein endothelial cells) and murine R3 (fibrosarcoma) and L (Ltk^− fibroblast) cells were maintained as mentioned above. […]
FIG. 29 summarizes the results of a statistical analysis of data compiled from a number of experiments in which the effect of SEQ ID NO:1 on tumour growth was assessed in human tumour cell xenografts in mice. […]

The nature of data set [2]: 21-day intravenous toxicity study in the rat with a 21-day recovery. It counts as in vivo, Sprague-Dawley rats. On the procedure: SEQ ID NO:1 was administered to Sprague-Dawley rats via intravenous bolus injection every second day up to 21 days, with a 21-day recovery period. The study design included 4 treatment groups; vehicle controls, 2 mg/kg, 10 mg/kg, and 50 mg/kg. The main study group consisted of 10 animals/sex, and an additional 5 animals/sex were included in the control and high-dose groups for a recovery phase. Satellite animals (6/sex/group) were also included for toxicokinetic analysis.

In data set [3] the test system is MDA-MB435-To.1 human Taxol-resistant breast adenocarcinoma cells. The data set is described as follows: MDA-MB435-To.1 Taxol-resistant breast adenocarcinoma, fat pad, SCID mice (2.5). It counts as in vivo, human cells in mice. On the procedure:
BxPC-3 is a gemcitabine resistant call line. […] Gemcitabine was administered intravenously every three days at a dose of 100 mg/kg. Antitumour activities were estimated by the inhibition of tumour volume, which was measured with caliper. Each point represents mean tumour volume calculated from 10 animals per experimental group. […] Hela S3 is a hydroxyurea resistant cell line. […] Hydroxyurea was administered intraperitoneally every day at a dose of 250 mg/kg for 10 days. Cisplatin was administered intravenously once a week for three weeks at a dose of 4 mg/kg. Antitumour activities were estimated by the inhibition of tumour volume, which was measured with caliper. Each point represents mean tumour volume calculated from 10 animals per experimental group. […] Cisplatin was administered intravenously once a week for three weeks at a dose of 4 mg/kg. Taxol was administered intravenously once a week for three weeks at a dose of 10 mg/kg. Antitumour activities were estimated by the inhibition of tumour volume, which was measured with caliper. Each point represents mean tumour volume calculated from 10 animals per experimental group. […] Taxol was administered i.p. once a week at a dose of 10 mg/kg. Antitumour activities were estimated by the inhibition of tumour volume (FIG. 12A), which was measured with calipers. Each point represents mean tumour volume calculated from 10 animals per experimental group. Animals were sacrificed and tumour weights taken at the end of the study (FIG. 12C). […] Cisplatin was administered intravenously once a week for four weeks at a dose of 4 mg/kg. Taxol was administered intravenously once a week for four weeks at a dose of 20 mg/kg. Antitumour activities were estimated by the inhibition of tumour volume, which was measured with caliper. Each point represents mean tumour volume calculated from 9-10 animals per experimental group. […] Cisplatin was administered intravenously once a week for four weeks at a dose of 4 mg/kg. Antitumour activities were estimated by the inhibition of tumour volume, which was measured with caliper. Each point represents mean tumour volume calculated from 10 animals per experimental group. At the end of the study the animals were sacrificed and tumours weighed. […] Taxol was administered i.p. once a week at a dose of 10 mg/kg. Anti-tumour activity was estimated by the inhibition of tumour volume, which was measured with caliper. Each point represents mean tumour volume calculated from 10 animals per experimental group. In addition animals were sacrificed and tumour weights taken at the end of the study. […] CPT-11 was administered i.p. for 5 days at a dose of 20 mg/kg/day. Antitumour activities were estimated by the inhibition of tumour volume, which was measured with caliper. Each point represents mean tumour volume calculated from 10 animals per experimental group. Tumour weights were measured after animals were sacrificed at the end of the treatment. These cells are not resistant to CPT-11 which was used as a positive control.

Where [4] appears, read: 50 mg/kg i.v. bolus every second day up to 21 days.

As to “5′-GGCTAAATCGCTCCACCAAG-3′ (all phosphorothioate, sugars by position and methylation of C not given here) [SEQ ID NO: 1, fully phosphorothioated antisense oligonucleotide that hybridizes to the coding region of R2 mRNA]”, in data set [1], the “Inhibition of tumour weight” value is recorded as around 65%. The Toxicity findings entry is “no remarkable effects on any of the above parameters” in data set [2] (2 mg/kg i.v. bolus every second day up to 21 days); “no clinical signs, no effects on body weight or food consumption, a lesser degree of anemia and thrombocytopenia, and only minor changes in a few serum chemistry parameters” in data set [2] (10 mg/kg i.v. bolus every second day up to 21 days); “various adverse clinical signs, a decrement in body weight gain (associated with diminished food consumption), lymphocytosis, moderate anemia and thrombocytopenia, and various relatively mild changes in serum chemistry parameters” in data set [2] (setting [4]). Also, the Mortality entry in data set [2] (setting [4]) is “A single mortality”. Besides, the “Target organs (histopathology)” value in data set [2] (10 and 50 mg/kg) is “lymphoid system, kidneys, and liver”. In data set [2] (21-day study), the “no-adverse-effect-level (NOAEL)” value amounted to 2 mg/kg/day. The “Tumour weight as % of saline control” value in data set [3] (MDA-MB435-To.1 (breast), Taxol resistant, SCID, SEQ ID NO:1 10 mg/kg i.v. every other day 15 times, Taxol 20 mg/kg, Cisplatin 4 mg/kg i.v. weekly x4) was found to be 42%. In addition, in data set [3] (MDA-MB435-To.1 Taxol-resistant, SCID mice, SEQ ID NO:1 10 mg/kg i.v. every other day, Cisplatin 4 mg/kg, Taxol 20 mg/kg i.v. weekly), the “Antitumour effect (FIG. 13)” value is on record as “significant reduction of tumour weight compared to saline control; also recorded: superior to the inhibitory effects observed with Cisplatin”.
